{"source": "patent US8927717B1", "about": "“Thiochromeno[2,3-c]quinolin-12-one derivatives, preparation method and application thereof” (National Defense Medical Center, priority 2014, dated 2015)", "assay_type_in_all_cases": "cell-based", "key": {"RXF 393": {"tested_on": "RXF 393"}, "SR": {"tested_on": "SR"}, "SK-MEL-28": {"tested_on": "SK-MEL-28"}, "SW-620": {"tested_on": "SW-620"}, "NCI-H23": {"tested_on": "NCI-H23", "details": "Non-small cell lung cancer; 10^−5 molar; 48 hours; SRB"}, "MOLT-4": {"tested_on": "MOLT-4"}, "MDA-MB-435": {"tested_on": "MDA-MB-435"}, "PC-3": {"tested_on": "PC-3"}, "60 cancer cell lines": {"tested_on": "60 cancer cell lines", "test": "NCI 60-cell screen, SRB, whole panel (mean, delta, range)"}, "M14": {"tested_on": "M14"}, "OVCAR-8": {"tested_on": "OVCAR-8"}, "BT-549": {"tested_on": "BT-549"}, "COLO 205": {"tested_on": "COLO 205"}, "T-47D": {"tested_on": "T-47D", "details": "Breast cancer; 10^−5 molar; 48 hours; SRB"}, "OVCAR-5": {"tested_on": "OVCAR-5"}, "K-562": {"tested_on": "K-562"}, "A549/ATCC": {"tested_on": "A549/ATCC"}, "HT29": {"tested_on": "HT29"}, "NCI-H522": {"tested_on": "NCI-H522"}, "SNB-19": {"tested_on": "SNB-19", "details": "CNS cancer; 10^−5 molar; 48 hours; SRB"}, "[1]": {"details": "Leukemia, 10^−5 molar, 48 hours, SRB"}, "[2]": {"details": "Homo sapiens, SK-MEL-28, five dose"}, "[3]": {"details": "Melanoma, 10^−5 molar, 48 hours, SRB"}, "[4]": {"details": "Colon cancer, 10^−5 molar, 48 hours, SRB"}, "[5]": {"details": "Homo sapiens, SW-620, five dose"}, "[6]": {"details": "Ovarian cancer, 10^−5 molar, 48 hours, SRB"}, "[7]": {"details": "Homo sapiens, COLO 205, five dose"}, "[8]": {"details": "Homo sapiens, A549/ATCC, five dose"}, "[9]": {"details": "Non-small cell lung cancer, 10^−5 molar, 48 hours, SRB"}, "[10]": {"details": "Homo sapiens, HT-29, HT29, five dose"}, "[11]": {"details": "Homo sapiens, NCI-H522, five dose"}}, "data": [{"compound": "CCNc1nc2ccccc2c2c(=O)c3cc(Cl)ccc3sc12", "note": "[Compound N2, 10-Chloro-6-ethylamino-12H-thiochromeno[2,3-c]quinolin-12-one]", "values": [{"measurement": "GI50", "setting": "RXF 393; Homo sapiens, RXF 393, five dose", "result": 13.1, "unit": "µM"}, {"measurement": "CC50", "setting": "RXF 393; Homo sapiens, RXF 393, five dose, read-out: LC50 (the source's name)", "result": "> 100", "unit": "µM"}, {"measurement": "TGI", "setting": "RXF 393; RXF 393, five dose", "result": 44.6, "unit": "µM"}, {"measurement": "Growth percent RXF 393", "setting": "RXF 393; Renal cancer, 10^−5 molar, 48 hours, SRB", "result": 34.56, "unit": "%"}, {"measurement": "GI50", "setting": "SR; Homo sapiens, SR, five dose", "result": "> 100", "unit": "µM"}, {"measurement": "LC50 (50% lethal concentration)", "setting": "SR; Homo sapiens, SR, five dose", "result": "> 100", "unit": "µM"}, {"measurement": "Growth percent SR", "setting": "SR; [1]", "result": 84.32, "unit": "%"}, {"measurement": "TGI", "setting": "SR; SR, five dose", "result": ">100", "unit": "µM"}, {"measurement": "GI50", "setting": "SK-MEL-28; [2]", "result": "> 100", "unit": "µM"}, {"measurement": "LC50", "setting": "SK-MEL-28; [2]", "result": "> 100", "unit": "µM"}, {"measurement": "Growth percent SK-MEL-28", "setting": "SK-MEL-28; [3]", "result": 93.07, "unit": "%"}, {"measurement": "TGI", "setting": "SK-MEL-28; SK-MEL-28, five dose", "result": ">100", "unit": "µM"}, {"measurement": "Growth percent SW-620", "setting": "SW-620; [4]", "result": 84.65, "unit": "%"}, {"measurement": "GI50", "setting": "SW-620; [5]", "result": "> 100", "unit": "µM"}, {"measurement": "LC50", "setting": "SW-620; [5]", "result": "> 100", "unit": "µM"}, {"measurement": "TGI", "setting": "SW-620; SW-620, five dose", "result": ">100", "unit": "µM"}, {"measurement": "Growth percent NCI-H23", "setting": "NCI-H23", "result": 86.29, "unit": "%"}, {"measurement": "GI50", "setting": "MOLT-4; Homo sapiens, MOLT-4, five dose", "result": "> 100", "unit": "µM"}, {"measurement": "CC50", "setting": "MOLT-4; Homo sapiens, MOLT-4, five dose, read-out: LC50 (the source's name)", "result": "> 100", "unit": "µM"}, {"measurement": "Growth percent MOLT-4", "setting": "MOLT-4; [1]", "result": 92.27, "unit": "%"}, {"measurement": "TGI", "setting": "MOLT-4; MOLT-4, five dose", "result": ">100", "unit": "µM"}, {"measurement": "GI50", "setting": "MDA-MB-435; Homo sapiens, MDA-MB-435, five dose", "result": "> 100", "unit": "µM"}, {"measurement": "CC50", "setting": "MDA-MB-435; Homo sapiens, MDA-MB-435, five dose, read-out: LC50 (the source's name)", "result": "> 100", "unit": "µM"}, {"measurement": "TGI", "setting": "MDA-MB-435; MDA-MB-435, five dose", "result": ">100", "unit": "µM"}, {"measurement": "Growth percent MDA-MB-435", "setting": "MDA-MB-435; [3]", "result": 80.67, "unit": "%"}, {"measurement": "GI50", "setting": "PC-3; Homo sapiens, PC-3, five dose", "result": "> 100", "unit": "µM"}, {"measurement": "CC50", "setting": "PC-3; Homo sapiens, PC-3, five dose, read-out: LC50 (the source's name)", "result": "> 100", "unit": "µM"}, {"measurement": "TGI", "setting": "PC-3; PC-3, five dose", "result": ">100", "unit": "µM"}, {"measurement": "Growth percent PC-3", "setting": "PC-3; Prostate cancer, 10^−5 molar, 48 hours, SRB", "result": 77.80, "unit": "%"}, {"measurement": "GI50", "setting": "60 cancer cell lines; 60 cell, mean over panel, five dose", "result": 28.8, "unit": "µM"}, {"measurement": "CC50", "setting": "60 cancer cell lines; 60 cell, mean over panel, five dose, read-out: LC50, Mean", "result": 100, "unit": "µM"}, {"measurement": "Growth percent, Delta", "setting": "60 cancer cell lines; delta over the cell panel, 10^−5 molar, 48 hours, SRB", "result": 66.04, "unit": "%"}, {"measurement": "TGI, Mean", "setting": "60 cancer cell lines; mean over panel, five dose", "result": 83.18, "unit": "µM"}, {"measurement": "Growth percent, Mean", "setting": "60 cancer cell lines; mean over the cell panel, 10^−5 molar, 48 hours, SRB", "result": 65.97, "unit": "%"}, {"measurement": "Growth percent, Range", "setting": "60 cancer cell lines; range over the cell panel, 10^−5 molar, 48 hours, SRB", "result": 103.40, "unit": "%"}, {"measurement": "GI50", "setting": "M14; Homo sapiens, M14, five dose", "result": "> 100", "unit": "µM"}, {"measurement": "LC50", "setting": "M14; Homo sapiens, M14, five dose", "result": "> 100", "unit": "µM"}, {"measurement": "TGI", "setting": "M14; M14, five dose", "result": ">100", "unit": "µM"}, {"measurement": "Growth percent M14", "setting": "M14; [3]", "result": 91.72, "unit": "%"}, {"measurement": "GI50", "setting": "OVCAR-8; Homo sapiens, OVCAR-8, five dose", "result": 17.7, "unit": "µM"}, {"measurement": "CC50", "setting": "OVCAR-8; Homo sapiens, OVCAR-8, five dose, read-out: LC50 (the source's name)", "result": "> 100", "unit": "µM"}, {"measurement": "TGI", "setting": "OVCAR-8; OVCAR-8, five dose", "result": ">100", "unit": "µM"}, {"measurement": "Growth percent OVCAR-8", "setting": "OVCAR-8; [6]", "result": 62.54, "unit": "%"}, {"measurement": "TGI", "setting": "BT-549; BT-549, five dose", "result": ">100", "unit": "µM"}, {"measurement": "Growth percent BT-549", "setting": "BT-549; Breast cancer, 10^−5 molar, 48 hours, SRB", "result": 100.10, "unit": "%"}, {"measurement": "GI50", "setting": "BT-549; Homo sapiens, BT-549, five dose", "result": 9.87, "unit": "µM"}, {"measurement": "CC50", "setting": "BT-549; Homo sapiens, BT-549, five dose, read-out: LC50 (the source's name)", "result": "> 100", "unit": "µM"}, {"measurement": "TGI", "setting": "COLO 205; COLO 205, five dose", "result": ">100", "unit": "µM"}, {"measurement": "Growth percent COLO 205", "setting": "COLO 205; [4]", "result": 82.36, "unit": "%"}, {"measurement": "GI50", "setting": "COLO 205; [7]", "result": "> 100", "unit": "µM"}, {"measurement": "LC50", "setting": "COLO 205; [7]", "result": "> 100", "unit": "µM"}, {"measurement": "Growth percent T-47D", "setting": "T-47D", "result": 38.28, "unit": "%"}, {"measurement": "GI50", "setting": "OVCAR-5; Homo sapiens, OVCAR-5, five dose", "result": "> 100", "unit": "µM"}, {"measurement": "CC50", "setting": "OVCAR-5; Homo sapiens, OVCAR-5, five dose, read-out: LC50 (the source's name)", "result": "> 100", "unit": "µM"}, {"measurement": "TGI", "setting": "OVCAR-5; OVCAR-5, five dose", "result": ">100", "unit": "µM"}, {"measurement": "Growth percent OVCAR-5", "setting": "OVCAR-5; [6]", "result": 92.93, "unit": "%"}, {"measurement": "GI50", "setting": "K-562; Homo sapiens, K562, K-562, five dose", "result": "> 100", "unit": "µM"}, {"measurement": "CC50", "setting": "K-562; Homo sapiens, K562, K-562, five dose, read-out: LC50 (the source's name)", "result": "> 100", "unit": "µM"}, {"measurement": "TGI", "setting": "K-562; K-562, five dose", "result": ">100", "unit": "µM"}, {"measurement": "Growth percent K-562", "setting": "K-562; [1]", "result": 77.52, "unit": "%"}, {"measurement": "TGI", "setting": "A549/ATCC; A549/ATCC, five dose", "result": ">100", "unit": "µM"}, {"measurement": "GI50", "setting": "A549/ATCC; [8]", "result": 48.1, "unit": "µM"}, {"measurement": "LC50", "setting": "A549/ATCC; [8]", "result": "> 100", "unit": "µM"}, {"measurement": "Growth percent A549/ATCC", "setting": "A549/ATCC; [9]", "result": 61.84, "unit": "%"}, {"measurement": "Growth percent HT29", "setting": "HT29; [4]", "result": 68.21, "unit": "%"}, {"measurement": "TGI", "setting": "HT29; HT29, five dose", "result": ">100", "unit": "µM"}, {"measurement": "GI50", "setting": "HT29; [10]", "result": "> 100", "unit": "µM"}, {"measurement": "LC50 (concentration killing 50% of cells)", "setting": "HT29; [10]", "result": "> 100", "unit": "µM"}, {"measurement": "GI50", "setting": "NCI-H522; [11]", "result": 24.8, "unit": "µM"}, {"measurement": "LC50 (concentration causing 50% net cell kill)", "setting": "NCI-H522; [11]", "result": "> 100", "unit": "µM"}, {"measurement": "TGI", "setting": "NCI-H522; NCI-H522, five dose", "result": ">100", "unit": "µM"}, {"measurement": "Growth percent NCI-H522", "setting": "NCI-H522; [9]", "result": 80.75, "unit": "%"}, {"measurement": "Growth percent SNB-19", "setting": "SNB-19", "result": 84.19, "unit": "%"}]}]}
